The values that follow come from ChEMBL document CHEMBL5365457, “Selective HDAC3 Inhibitors with Potent In Vivo Antitumor Efficacy against Triple-Negative Breast Cancer” (J Med Chem, 2023).

The target in one series is Histone deacetylase 2 (Homo sapiens, UniProt Q92769). Nature of the series: Inhibition of human recombinant HDAC2 at 1 uM incubated for 30 mins by fluorescence based microplate assay relative to control.
The test system of another series is MCF7. Nature of the series: Cytotoxicity against human MCF7 cells assessed as inhibition of cell growth incubated for 72 hrs by MTT assay. The settings on record: MCF7, 72 h. The format is functional, cell-based.
Series [1] concerns 4T1. Nature of the series: Cytotoxicity against mouse 4T1 cells assessed as inhibition of cell growth incubated for 72 hrs by MTT assay. The format is functional, cell-based. The settings on record: 4T1, 72 h. A general note: Formazan colour is commonly taken as a measure of viable cells.
The next series has as its system MDA-MB-231. The experiment in a line: Cytotoxicity against human MDA-MB-231 cells assessed as inhibition of cell growth incubated for 72 hrs by MTT assay. The format is functional, cell-based. Particulars: MDA-MB-231, 72 h.
Series [2] is described as follows: Cytotoxicity against human HEK293 cells assessed as inhibition of cell growth incubated for 72 hrs by MTT assay. The format is toxicity, cell-based.
The nature of series [3]: Tmax in Wistar rat at 5 mg/kg, ip measured upto 24 hrs by HPLC analysis. Particulars: in vivo. The format is ADME, organism-based.
A short description of series [4]: Tmax in Wistar rat at 15 mg/kg, ip measured upto 24 hrs by HPLC analysis. The format is ADME, organism-based. The settings on record: in vivo.
Series [5] can be described thus: Apparent oral clearance in Wistar rat at 5 mg/kg, ip measured upto 24 hrs by HPLC analysis. The settings on record: in vivo. The format is ADME, organism-based.
A further series has as its target Histone deacetylase 3 (Homo sapiens, UniProt O15379). Nature of the series: Inhibition of human recombinant HDAC3 incubated for 15 mins by fluorescence based microplate analysis.
In series [6] the target is T1, Protein deacetylase HDAC6 (Homo sapiens, UniProt Q9UBN7).
T1 sequence (Q9UBN7 whole entry): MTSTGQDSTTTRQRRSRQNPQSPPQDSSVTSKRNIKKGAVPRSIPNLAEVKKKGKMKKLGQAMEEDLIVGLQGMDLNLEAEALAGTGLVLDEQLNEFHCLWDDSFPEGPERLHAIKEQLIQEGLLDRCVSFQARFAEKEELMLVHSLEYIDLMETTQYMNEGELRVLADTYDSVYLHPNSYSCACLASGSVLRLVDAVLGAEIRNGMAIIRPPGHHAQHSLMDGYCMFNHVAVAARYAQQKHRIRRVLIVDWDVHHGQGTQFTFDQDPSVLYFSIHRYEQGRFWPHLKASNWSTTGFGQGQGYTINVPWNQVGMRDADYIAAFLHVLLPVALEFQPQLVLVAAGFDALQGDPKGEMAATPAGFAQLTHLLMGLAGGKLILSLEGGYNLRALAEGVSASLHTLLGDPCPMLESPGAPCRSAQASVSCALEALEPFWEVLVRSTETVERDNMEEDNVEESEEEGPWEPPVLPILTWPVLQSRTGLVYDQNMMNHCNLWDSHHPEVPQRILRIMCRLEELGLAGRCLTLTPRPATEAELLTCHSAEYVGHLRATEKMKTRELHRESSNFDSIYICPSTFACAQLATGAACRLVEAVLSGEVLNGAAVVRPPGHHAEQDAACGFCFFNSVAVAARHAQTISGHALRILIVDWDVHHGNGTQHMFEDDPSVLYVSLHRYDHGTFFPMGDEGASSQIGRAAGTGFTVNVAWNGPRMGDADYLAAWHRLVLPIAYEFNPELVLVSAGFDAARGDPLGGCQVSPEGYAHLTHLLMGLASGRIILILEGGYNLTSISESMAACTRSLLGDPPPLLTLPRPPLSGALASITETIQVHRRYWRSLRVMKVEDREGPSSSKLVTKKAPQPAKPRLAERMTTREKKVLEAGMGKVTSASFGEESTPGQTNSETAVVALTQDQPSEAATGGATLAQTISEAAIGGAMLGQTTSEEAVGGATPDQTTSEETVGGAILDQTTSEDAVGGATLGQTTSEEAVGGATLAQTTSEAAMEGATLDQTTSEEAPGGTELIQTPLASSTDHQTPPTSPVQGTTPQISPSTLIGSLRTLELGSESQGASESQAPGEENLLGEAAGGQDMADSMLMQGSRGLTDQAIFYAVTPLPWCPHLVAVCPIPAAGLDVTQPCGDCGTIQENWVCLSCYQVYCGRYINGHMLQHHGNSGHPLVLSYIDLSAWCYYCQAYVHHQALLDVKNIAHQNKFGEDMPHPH
The experiment in a line: Inhibition of human recombinant HDAC6 incubated for 10 mins by fluorescence based microplate analysis.

Series [7] is described as follows: Selectivity ratio of IC50 for cytotoxicity against human HEK293 cells assessed as inhibition of cell growth to IC50 for cytotoxicity against human MDA-MB-231 cells assessed as inhibition of cell growth. Particulars: HEK293 cells versus MDA-MB-231 cells, read-out: Ratio IC50. The format is toxicity, cell-based.
Series [8] can be described thus: Selectivity ratio of IC50 for cytotoxicity against human HCEC cells assessed as inhibition of cell growth to IC50 for cytotoxicity against human MCF7 cells assessed as inhibition of cell growth. The format is toxicity, cell-based. The settings on record: HCEC cells versus MCF7 cells, read-out: Ratio IC50.
Series [9] can be described thus: Selectivity ratio of IC50 for cytotoxicity against human HCEC cells assessed as inhibition of cell growth to IC50 for cytotoxicity against mouse 4T1 cells assessed as inhibition of cell growth. The format is toxicity, cell-based. Particulars: HCEC cells versus 4T1 cells, read-out: Ratio IC50.
The nature of series [10]: Selectivity ratio of IC50 for cytotoxicity against human HCEC cells assessed as inhibition of cell growth to IC50 for cytotoxicity against human MDA-MB-231 cells assessed as inhibition of cell growth. The format is toxicity, cell-based. Particulars: HCEC cells versus MDA-MB-231 cells, read-out: Ratio IC50.
The subject of series [11] is 4T1. Nature of the series: Induction of apoptosis in mouse 4T1 cells at 550 nM incubated for 72 hrs by annexin/PI staining based flow cytometry analysis (reference value: 1.35%). The format is functional.
A short description of series [12]: Metabolic stability in rat liver microsome assessed as intrinsic clearance preincubated for 5 mins followed by NADPH addition and measured after 60 mins by HPLC analysis. The format is ADME. Particulars: liver microsomes, time 65 min, read-out: CLH. (Liver microsomes are a subcellular fraction often used to study metabolism.)
Series [13] has as its system 4T1. The experiment in a line: Antitumor activity against mouse 4T1 cells implanted in BALB/c mouse assessed as tumor growth inhibition at 5 mg/kg, ip measured on day 7. The format is functional. The settings on record: 4T1, 168 h, time 7 day, read-out: TGI.
Series [14] is described as follows: Toxicity in BALB/c mouse implanted with mouse 4T1 cells assessed as heart damage at 5 to 15 mg/kg, ip measured after 21 days by H and E staining based assay. The format is organism-based. Particulars: in vivo, 504 h, dose 5-15 mg/kg, time 21 day.
Series [15] in a line: Toxicity in BALB/c mouse implanted with mouse 4T1 cells assessed as spleen damage at 5 to 15 mg/kg, ip measured after 21 days by H and E staining based assay. The format is organism-based. Particulars: in vivo, 504 h, dose 5-15 mg/kg, time 21 day.
The nature of series [16]: Toxicity in BALB/c mouse implanted with mouse 4T1 cells assessed as effect on cell shape in liver at 5 to 15 mg/kg, ip measured after 21 days by H and E staining based assay. The format is organism-based. Particulars: in vivo, 504 h, dose 5-15 mg/kg, time 21 day.
The nature of series [17]: Toxicity in BALB/c mouse implanted with mouse 4T1 cells assessed as effect on cell shape in spleen at 5 to 15 mg/kg, ip measured after 21 days by H and E staining based assay. Particulars: in vivo, 504 h, dose 5-15 mg/kg, time 21 day. The format is organism-based.
Series [18] has as its system 4T1. Nature of the series: Antitumor activity against mouse 4T1 cells implanted in BALB/c mouse assessed as reduction in EGFR protein level in tumor at 5 to 15 mg/kg, ip by Western blot analysis. The format is functional, organism-based. The settings on record: dose 5-15 mg/kg.

Calls of active or inactive are those of the source. The calls are words filed in the database; no cut-off is given here.

Sequence of Histone deacetylase 3 (O15379 whole entry): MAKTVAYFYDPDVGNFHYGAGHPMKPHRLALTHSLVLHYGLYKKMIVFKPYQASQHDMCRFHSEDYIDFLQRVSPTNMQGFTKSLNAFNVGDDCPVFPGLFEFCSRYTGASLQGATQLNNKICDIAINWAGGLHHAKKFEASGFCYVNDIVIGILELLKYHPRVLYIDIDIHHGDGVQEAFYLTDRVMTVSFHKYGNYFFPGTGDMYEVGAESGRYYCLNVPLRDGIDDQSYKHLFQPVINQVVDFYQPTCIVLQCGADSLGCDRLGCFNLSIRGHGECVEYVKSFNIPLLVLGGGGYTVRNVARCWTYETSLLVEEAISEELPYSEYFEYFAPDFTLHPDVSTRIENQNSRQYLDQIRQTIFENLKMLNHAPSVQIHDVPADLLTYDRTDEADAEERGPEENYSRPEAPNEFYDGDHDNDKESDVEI
Sequence of Histone deacetylase 2 (Q92769 whole entry): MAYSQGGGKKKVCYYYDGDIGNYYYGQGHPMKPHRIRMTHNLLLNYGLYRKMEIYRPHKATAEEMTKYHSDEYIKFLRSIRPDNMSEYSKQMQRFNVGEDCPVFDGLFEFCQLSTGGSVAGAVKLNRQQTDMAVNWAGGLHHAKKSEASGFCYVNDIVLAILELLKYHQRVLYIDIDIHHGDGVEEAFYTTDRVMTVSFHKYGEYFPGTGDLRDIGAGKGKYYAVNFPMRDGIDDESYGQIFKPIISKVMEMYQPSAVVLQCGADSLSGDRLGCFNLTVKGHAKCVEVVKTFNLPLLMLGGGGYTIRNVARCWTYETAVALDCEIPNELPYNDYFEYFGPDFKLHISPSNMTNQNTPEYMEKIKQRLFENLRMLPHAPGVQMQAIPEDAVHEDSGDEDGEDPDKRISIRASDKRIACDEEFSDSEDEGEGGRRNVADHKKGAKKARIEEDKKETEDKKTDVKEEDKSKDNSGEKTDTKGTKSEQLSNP

Consider `CCCNNC(=O)c1cnc(NCc2ccc(OC)cc2)cn1`, for which, on Histone deacetylase 2, the inhibition (commonly the drop in the measured response relative to a control, in per cent) was < 17%. Also, the IC50 (commonly the point on the concentration scale where inhibition reaches its midpoint) turned out to be 0.95 µM in the series with MCF7; 0.55 µM with 4T1 [1]; 0.74 µM with MDA-MB-231; 0.014 µM at Histone deacetylase 3; 25.9 µM in series [6]. Besides, in series [2], the IC50 at 72 h was determined as 239 µM. Further, the Tmax in [3] and in [4] was 2 h each time. In addition, in series [5], the CL/F was 1.15 (mg/kg)/(ug/ml).hr. The selectivity ratio in [7], in series [8], in series [9] and in series [10] was 286 throughout. Besides, the Activity is 63.4% in the series on 4T1 [11]; “Non-Toxic” in series [14]; “Non-Toxic” in series [15]; “Non-Toxic” in series [16]; “Non-Toxic” in [17]. In addition, the microsomal CLint in series [12] amounted to 36.2 µL/min/mg. Moreover, the inhibition in vivo at 5 mg/kg in the series on 4T1 [13] amounted to 76.2%. The result with 4T1 [18] was Active.
